Data on 7 molecules can be found in ChEMBL document CHEMBL1135809 (J Med Chem, 2002).

The target of experiment [1] is T1, 5-hydroxytryptamine receptor 1A (Mus musculus, UniProt Q64264).
T1 sequence (Q64264 whole entry): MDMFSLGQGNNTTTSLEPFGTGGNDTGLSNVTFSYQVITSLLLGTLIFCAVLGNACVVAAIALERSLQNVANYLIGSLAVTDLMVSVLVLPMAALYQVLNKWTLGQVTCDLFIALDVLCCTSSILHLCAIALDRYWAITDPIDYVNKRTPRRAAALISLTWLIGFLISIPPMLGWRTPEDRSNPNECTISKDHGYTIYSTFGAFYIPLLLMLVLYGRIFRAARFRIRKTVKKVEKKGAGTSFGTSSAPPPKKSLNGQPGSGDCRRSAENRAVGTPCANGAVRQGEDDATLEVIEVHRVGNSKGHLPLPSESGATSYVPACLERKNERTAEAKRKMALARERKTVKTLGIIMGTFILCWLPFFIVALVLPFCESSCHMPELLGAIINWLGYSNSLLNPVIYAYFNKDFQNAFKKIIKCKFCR
The experiment can be described thus: Inhibition of […] binding to 5-hydroxytryptamine 1A receptor.

Experiment [2] has as its target 5-hydroxytryptamine receptor 2A (Homo sapiens, UniProt P28223). The experiment can be described thus: Inhibition of ketanserin binding to 5-hydroxytryptamine 2A receptor.
For experiment [3], the target named is T2, 5-hydroxytryptamine receptor 3A (Homo sapiens, UniProt P46098).
T2 sequence (P46098 whole entry): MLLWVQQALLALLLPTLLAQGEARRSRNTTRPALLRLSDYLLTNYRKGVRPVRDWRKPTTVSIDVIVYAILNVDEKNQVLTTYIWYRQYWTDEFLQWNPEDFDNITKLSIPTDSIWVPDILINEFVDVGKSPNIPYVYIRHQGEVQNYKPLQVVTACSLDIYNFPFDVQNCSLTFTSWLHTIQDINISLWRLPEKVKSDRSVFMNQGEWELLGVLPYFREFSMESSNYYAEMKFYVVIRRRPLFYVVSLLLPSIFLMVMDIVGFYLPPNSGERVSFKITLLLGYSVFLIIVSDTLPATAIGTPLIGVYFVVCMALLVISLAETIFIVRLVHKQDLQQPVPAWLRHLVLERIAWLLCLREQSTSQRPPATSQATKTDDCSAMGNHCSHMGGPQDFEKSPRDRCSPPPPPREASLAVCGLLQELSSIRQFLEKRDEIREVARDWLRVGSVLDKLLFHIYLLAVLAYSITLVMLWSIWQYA
The experiment can be described thus: Inhibition of GR-65630 binding to 5-hydroxytryptamine 3 receptor.

Another experiment concerns the target D(1A) dopamine receptor (Mus musculus, UniProt Q61616). The experiment can be described thus: Inhibition of SCH 23390 binding to Dopamine receptor D1.
The next experiment deals with Histamine H1 receptor (Homo sapiens, UniProt P35367). The experiment can be described thus: Inhibition of mepyramine binding to Histamine H1 receptor.
Chain of Histamine H1 receptor (P35367 whole entry): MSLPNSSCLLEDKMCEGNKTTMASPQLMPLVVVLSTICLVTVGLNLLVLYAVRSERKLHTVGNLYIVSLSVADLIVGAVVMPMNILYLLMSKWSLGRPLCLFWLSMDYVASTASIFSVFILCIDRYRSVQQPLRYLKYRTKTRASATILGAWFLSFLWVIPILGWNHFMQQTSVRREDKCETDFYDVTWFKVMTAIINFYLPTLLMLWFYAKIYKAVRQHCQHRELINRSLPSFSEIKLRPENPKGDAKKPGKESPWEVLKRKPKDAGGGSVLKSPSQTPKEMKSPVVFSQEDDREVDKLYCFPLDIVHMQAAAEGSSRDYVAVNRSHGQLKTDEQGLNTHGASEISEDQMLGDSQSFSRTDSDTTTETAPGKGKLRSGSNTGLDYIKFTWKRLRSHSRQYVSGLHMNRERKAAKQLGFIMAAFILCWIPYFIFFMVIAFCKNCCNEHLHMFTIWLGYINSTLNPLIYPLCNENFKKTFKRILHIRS
In experiment [4] the target is Glutamate receptor ionotropic, NMDA 2C (Rattus norvegicus, UniProt Q00961). The experiment can be described thus: Inhibition of MK 801 binding to NMDA, PCP receptor.
Chain of Glutamate receptor ionotropic, NMDA 2C (Q00961 whole entry): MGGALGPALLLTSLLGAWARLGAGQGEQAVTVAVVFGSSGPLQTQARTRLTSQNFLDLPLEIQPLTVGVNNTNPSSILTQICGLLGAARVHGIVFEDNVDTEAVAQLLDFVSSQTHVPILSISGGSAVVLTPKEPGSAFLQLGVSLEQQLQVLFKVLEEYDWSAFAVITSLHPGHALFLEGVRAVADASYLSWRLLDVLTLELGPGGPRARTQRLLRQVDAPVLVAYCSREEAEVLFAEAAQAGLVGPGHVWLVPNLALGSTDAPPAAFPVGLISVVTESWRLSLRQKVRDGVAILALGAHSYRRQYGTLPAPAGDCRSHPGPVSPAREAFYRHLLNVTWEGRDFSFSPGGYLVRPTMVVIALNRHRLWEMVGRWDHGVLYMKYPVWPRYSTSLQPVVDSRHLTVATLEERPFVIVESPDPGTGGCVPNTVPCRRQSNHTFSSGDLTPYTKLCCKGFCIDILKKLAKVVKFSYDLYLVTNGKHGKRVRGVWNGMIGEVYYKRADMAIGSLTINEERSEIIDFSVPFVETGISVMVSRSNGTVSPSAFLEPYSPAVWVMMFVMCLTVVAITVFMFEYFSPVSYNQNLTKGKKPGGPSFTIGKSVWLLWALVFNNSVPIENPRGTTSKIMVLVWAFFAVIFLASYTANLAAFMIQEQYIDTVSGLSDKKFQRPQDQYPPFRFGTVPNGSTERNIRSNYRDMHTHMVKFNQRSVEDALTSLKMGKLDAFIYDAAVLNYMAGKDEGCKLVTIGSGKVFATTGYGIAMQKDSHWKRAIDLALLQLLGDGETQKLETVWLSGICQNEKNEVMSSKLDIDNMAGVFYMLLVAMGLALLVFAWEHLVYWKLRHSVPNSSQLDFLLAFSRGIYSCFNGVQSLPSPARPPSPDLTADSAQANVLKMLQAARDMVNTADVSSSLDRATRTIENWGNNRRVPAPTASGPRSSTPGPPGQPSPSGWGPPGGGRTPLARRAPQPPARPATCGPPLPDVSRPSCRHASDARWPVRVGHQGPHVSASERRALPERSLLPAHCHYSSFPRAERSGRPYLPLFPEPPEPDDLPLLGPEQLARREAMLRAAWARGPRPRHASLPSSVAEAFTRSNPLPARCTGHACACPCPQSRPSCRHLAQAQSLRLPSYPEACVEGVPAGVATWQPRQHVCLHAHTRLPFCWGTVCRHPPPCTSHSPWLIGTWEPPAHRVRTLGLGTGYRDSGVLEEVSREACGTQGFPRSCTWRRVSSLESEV
The target of another experiment is Substance-P receptor (Homo sapiens, UniProt P25103). The experiment can be described thus: Inhibition of [Sar9,Met(O2)11]-SP binding to human Tachykinin receptor 1 (NK1).
Chain of Substance-P receptor (P25103 whole entry): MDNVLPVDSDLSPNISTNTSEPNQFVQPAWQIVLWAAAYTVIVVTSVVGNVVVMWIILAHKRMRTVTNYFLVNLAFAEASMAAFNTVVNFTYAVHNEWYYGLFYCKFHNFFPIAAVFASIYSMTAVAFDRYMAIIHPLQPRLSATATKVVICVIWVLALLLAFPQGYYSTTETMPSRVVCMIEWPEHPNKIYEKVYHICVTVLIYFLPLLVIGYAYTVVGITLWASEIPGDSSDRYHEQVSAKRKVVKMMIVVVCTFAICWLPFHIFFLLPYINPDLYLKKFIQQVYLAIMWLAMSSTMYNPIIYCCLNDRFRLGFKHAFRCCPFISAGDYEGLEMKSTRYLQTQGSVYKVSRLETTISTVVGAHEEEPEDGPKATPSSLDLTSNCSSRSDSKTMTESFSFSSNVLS
Another experiment addresses T3, Neuromedin-K receptor (Homo sapiens, UniProt P29371).
T3 sequence (P29371 whole entry): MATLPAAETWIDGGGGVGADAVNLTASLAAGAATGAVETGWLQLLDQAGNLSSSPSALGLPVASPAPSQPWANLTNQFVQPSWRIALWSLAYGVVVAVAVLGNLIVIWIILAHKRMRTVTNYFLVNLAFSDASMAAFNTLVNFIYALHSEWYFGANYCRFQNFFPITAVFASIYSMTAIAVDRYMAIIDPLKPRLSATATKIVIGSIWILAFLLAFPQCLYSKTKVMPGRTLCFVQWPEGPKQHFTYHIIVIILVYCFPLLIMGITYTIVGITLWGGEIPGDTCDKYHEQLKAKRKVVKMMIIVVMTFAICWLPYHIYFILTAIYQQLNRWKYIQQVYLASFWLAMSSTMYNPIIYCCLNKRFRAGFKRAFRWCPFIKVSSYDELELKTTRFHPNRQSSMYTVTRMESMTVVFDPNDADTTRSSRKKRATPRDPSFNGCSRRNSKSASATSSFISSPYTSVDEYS
The experiment can be described thus: Inhibition of [125I][MePhe7]-NKB binding to human Tachykinin receptor 3 (NK3).

A further experiment addresses T4, Substance-K receptor (Homo sapiens, UniProt P21452).
T4 sequence (P21452 whole entry): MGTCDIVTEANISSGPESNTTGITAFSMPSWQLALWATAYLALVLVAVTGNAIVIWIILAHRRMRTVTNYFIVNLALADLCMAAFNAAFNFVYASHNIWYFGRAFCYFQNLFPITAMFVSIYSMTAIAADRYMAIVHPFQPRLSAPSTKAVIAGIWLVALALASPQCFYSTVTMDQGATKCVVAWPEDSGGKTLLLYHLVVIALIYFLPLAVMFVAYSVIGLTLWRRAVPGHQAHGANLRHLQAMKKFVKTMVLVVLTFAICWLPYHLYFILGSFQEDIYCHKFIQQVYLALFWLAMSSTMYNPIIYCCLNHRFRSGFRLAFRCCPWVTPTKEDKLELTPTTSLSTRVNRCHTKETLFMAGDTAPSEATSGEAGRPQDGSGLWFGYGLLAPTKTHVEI
The experiment can be described thus: Inhibition of [125I]NKA binding to human Tachykinin receptor 2 (NK2).

Experiment [5] addresses T5, Alpha-2A adrenergic receptor (Homo sapiens, UniProt P08913).
T5 sequence (P08913 whole entry): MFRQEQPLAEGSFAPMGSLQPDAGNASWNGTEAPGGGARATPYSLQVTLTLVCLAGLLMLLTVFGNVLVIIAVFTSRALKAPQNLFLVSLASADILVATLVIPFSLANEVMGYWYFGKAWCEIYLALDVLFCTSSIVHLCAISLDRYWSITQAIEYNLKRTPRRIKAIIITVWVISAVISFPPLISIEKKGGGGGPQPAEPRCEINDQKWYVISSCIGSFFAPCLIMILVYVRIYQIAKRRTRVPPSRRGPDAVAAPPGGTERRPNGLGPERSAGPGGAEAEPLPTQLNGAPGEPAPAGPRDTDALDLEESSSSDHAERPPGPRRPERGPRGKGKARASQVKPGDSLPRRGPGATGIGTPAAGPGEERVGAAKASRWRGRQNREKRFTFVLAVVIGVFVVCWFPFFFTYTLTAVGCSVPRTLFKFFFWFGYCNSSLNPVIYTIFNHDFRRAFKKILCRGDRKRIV
The experiment can be described thus: Inhibition of idazoxane binding to noradrenaline alpha-2 receptor.

Experiment [6] is described as follows: The compound was tested for inhibition of serotonin reuptake. In kind it is functional.
For experiment [7], the target named is Sigma non-opioid intracellular receptor 1 (Homo sapiens) (UniProt Q99720). The experiment can be described thus: Selectivity ratio (Sigma1/Sigma2).
Chain of Sigma non-opioid intracellular receptor 1 (Homo sapiens) (Q99720 whole entry): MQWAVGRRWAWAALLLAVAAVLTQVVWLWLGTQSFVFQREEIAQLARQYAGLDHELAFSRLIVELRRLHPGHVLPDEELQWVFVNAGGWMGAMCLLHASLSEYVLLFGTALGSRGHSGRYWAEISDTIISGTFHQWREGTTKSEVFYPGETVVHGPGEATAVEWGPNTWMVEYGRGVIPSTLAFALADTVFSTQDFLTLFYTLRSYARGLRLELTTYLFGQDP
Experiment [8] can be described thus: The compound was tested for inhibition of noradrenaline reuptake. The format is functional.
The nature of experiment [9]: Inhibition of prazosin binding to noradrenaline alpha-1 receptor.

Chain of D(1A) dopamine receptor (Q61616 whole entry): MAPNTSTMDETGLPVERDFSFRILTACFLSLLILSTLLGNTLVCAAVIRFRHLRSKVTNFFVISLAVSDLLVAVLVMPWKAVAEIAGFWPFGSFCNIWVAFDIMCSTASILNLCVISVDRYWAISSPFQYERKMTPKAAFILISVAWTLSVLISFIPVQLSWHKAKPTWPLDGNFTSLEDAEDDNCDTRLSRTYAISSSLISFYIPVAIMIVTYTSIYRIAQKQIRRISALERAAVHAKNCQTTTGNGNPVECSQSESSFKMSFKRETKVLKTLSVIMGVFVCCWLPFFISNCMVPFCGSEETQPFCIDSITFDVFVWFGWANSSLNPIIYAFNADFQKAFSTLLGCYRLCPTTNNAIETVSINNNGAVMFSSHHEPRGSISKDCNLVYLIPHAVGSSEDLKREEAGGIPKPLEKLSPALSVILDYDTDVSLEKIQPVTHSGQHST
Chain of 5-hydroxytryptamine receptor 2A (P28223 whole entry): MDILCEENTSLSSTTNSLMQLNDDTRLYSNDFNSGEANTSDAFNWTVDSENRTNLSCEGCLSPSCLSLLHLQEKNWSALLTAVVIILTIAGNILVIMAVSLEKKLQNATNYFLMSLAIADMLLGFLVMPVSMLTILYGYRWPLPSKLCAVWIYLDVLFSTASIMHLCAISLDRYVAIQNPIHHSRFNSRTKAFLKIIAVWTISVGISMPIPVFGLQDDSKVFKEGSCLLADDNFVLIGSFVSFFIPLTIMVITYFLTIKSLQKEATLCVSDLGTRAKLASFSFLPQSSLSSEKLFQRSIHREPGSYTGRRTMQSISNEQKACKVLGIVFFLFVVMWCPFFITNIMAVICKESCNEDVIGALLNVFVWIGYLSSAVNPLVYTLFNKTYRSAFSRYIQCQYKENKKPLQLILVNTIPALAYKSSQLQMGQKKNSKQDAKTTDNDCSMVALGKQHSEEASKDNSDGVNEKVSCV

Take `COC1Cc2ccccc2C2(CCN(Cc3ccccc3)CC2)O1` (stereo unspecified): the IC50 in experiment [1] is greater than 1 µM; in experiment [2], 6.6 µM; in [3] it was greater than 10 µM; at D(1A) dopamine receptor it was greater than 10 µM; at Histamine H1 receptor, greater than 10 µM; in experiment [4] it was greater than 10 µM. Besides, the IC50 on Substance-P receptor is greater than 10 µM; at Neuromedin-K receptor it was greater than 10 µM; on Substance-K receptor, greater than 10 µM; in experiment [5] it was 3 µM; in [6] it was 6 µM.

As for `OC1Cc2ccccc2C2(CCN(Cc3ccccc3)CC2)O1` (stereo unspecified), the Selectivity ratio in [7] is 236.

Consider `COC1OC2(CCN(Cc3ccccc3)CC2)c2ccccc21` (stereo unspecified), for which the 50% inhibitory concentration (IC50) is greater than 1 µM in [1]; greater than 10 µM in [2]; greater than 10 µM in experiment [3]; greater than 10 µM on D(1A) dopamine receptor; greater than 10 µM on Histamine H1 receptor; greater than 10 µM in experiment [4]. The IC50 was greater than 10 µM on Substance-P receptor; greater than 10 µM on Neuromedin-K receptor; greater than 10 µM on Substance-K receptor; 6.2 µM in experiment [5]; greater than 10 µM in experiment [8]; greater than 10 µM in experiment [9]. The same molecule gave an IC50 in [6] of 8 µM.

For `COC1Cc2ccccc2C2(CCN(CCCCc3ccccc3)CC2)O1` (stereo unspecified), in experiment [7], the Selectivity ratio stood at 30.

Consider `COC1Cc2ccccc2C2(CCN(C/C=C/c3ccccc3)CC2)O1` (stereo unspecified), for which, in [7], the Selectivity ratio came to 301.

`COC1Cc2ccccc2C2(CCN(CCCc3ccccc3)CC2)O1` (stereo unspecified): the IC50 in experiment [1] was greater than 1 µM; in [2], 0.46 µM; in experiment [3], greater than 10 µM; on D(1A) dopamine receptor it was greater than 10 µM; on Histamine H1 receptor, 8 µM; in experiment [4] it was greater than 10 µM. The IC50 on Substance-P receptor is greater than 10 µM; at Neuromedin-K receptor, greater than 10 µM; on Substance-K receptor it was greater than 10 µM; in experiment [5], 3.1 µM; in [8], 0.51 µM; in experiment [9], 1.4 µM. In [6], the midpoint of inhibition, the IC50, lay at 0.7 µM.

On to `OC1Cc2ccccc2C2(CCN(CCc3ccccc3)CC2)O1` (stereo unspecified), for which, in experiment [7], the Selectivity ratio stood at 2.
